Experimental findings from patent US8940893B2, “Heteroaromatic compounds as BTK inhibitors” (Boehringer Ingelheim International GmbH, priority 2013, dated 2015) are described below.

full-length human His-tagged BTK, sequence (Q06187 whole entry): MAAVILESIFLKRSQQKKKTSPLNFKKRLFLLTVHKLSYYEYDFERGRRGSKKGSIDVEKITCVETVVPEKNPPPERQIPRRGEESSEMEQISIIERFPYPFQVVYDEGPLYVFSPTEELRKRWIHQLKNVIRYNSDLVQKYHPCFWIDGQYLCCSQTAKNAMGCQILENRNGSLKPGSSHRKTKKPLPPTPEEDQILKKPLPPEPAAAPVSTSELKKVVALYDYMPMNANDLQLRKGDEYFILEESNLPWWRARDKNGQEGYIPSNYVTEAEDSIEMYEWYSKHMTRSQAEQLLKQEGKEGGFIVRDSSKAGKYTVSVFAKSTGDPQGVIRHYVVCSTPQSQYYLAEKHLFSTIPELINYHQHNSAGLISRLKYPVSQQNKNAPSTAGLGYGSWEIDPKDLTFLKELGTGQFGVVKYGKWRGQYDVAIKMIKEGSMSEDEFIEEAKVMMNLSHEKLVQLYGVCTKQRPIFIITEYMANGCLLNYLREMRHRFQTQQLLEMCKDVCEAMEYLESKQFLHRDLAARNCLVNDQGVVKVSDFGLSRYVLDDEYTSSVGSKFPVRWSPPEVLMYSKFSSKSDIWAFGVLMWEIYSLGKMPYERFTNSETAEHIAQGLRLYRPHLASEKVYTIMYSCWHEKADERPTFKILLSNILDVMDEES

The assay addresses full-length human His-tagged BTK (Homo sapiens (Human), UniProt Q06187). Briefly: BTK HTRF assay (Cisbio KinEASE-TK). Type of assay: biochemical. As to conditions: 6 nM BTK, 15 min preincubation at 28° C., 30 uM ATP. The method, then: BTK Assay An HTRF assay (Cisbio KinEASE-TK cat #62TKOPEC) was performed to quantitate the ability of test compounds to inhibit BTK mediated phosphorylation of substrate. […] Then, 1 uM of TK substrate-biotin and 30 uM ATP were added and incubated for an additional 30 minutes at 28° C. Phospohrylation was detected by adding 62.5 nM Streptavidin-XL665 and TK-Antibody Cryptate diluted 1:100 in HTRF detection buffer (Cisbio cat #62SDBRDF) and incubated for 60 minutes at RT. The plate was read on an Envision plate reader and the fluoresence is measured at 620 nm (cryptate) and 665 nm (XL665). A ratio is calculated (665/620) and converted to POC relative to control and blank wells. Assay Buffer: […]
For orientation: TR-FRET usually uses a lanthanide donor and a delayed reading to cut background.
With `C=CC(=O)N1CC2(CC(n3nc(-c4ccc(Oc5ccccc5)cc4)c4c(N)ncnc43)C2)C1` [Example 1], the IC50 is 1 nM. For `CN(C)C/C=C/C(=O)N1CC2(CC(n3nc(-c4ccc(Oc5ccccc5)cc4)c4c(N)ncnc43)C2)C1` [Example 2] the value was 1.8 nM; for `CC#CC(=O)N1CC2(CC(n3nc(-c4ccc(Oc5ccccc5)cc4)c4c(N)ncnc43)C2)C1` [Example 3], 0.83 nM. Molecule `Nc1ncnc2c1c(-c1ccc(Oc3ccccc3)cc1)nn2C1CC2(C1)CN(C(=O)C1CO1)C2` (stereo not shown) [Example 4] showed a half-inhibitory concentration (IC50) of 13 nM.

Molecule `C=CC(=O)N1CCC2(CC(n3nc(-c4ccc(Oc5ccccc5)cc4)c4c(N)ncnc43)C2)C1` (stereo not shown) [Example 5] displayed an IC50 of 0.87 nM.

`C=CC(=O)N1CC2(CC(n3nc(-c4ccc(-c5cnc(Cc6ccccc6)n(C)c5=O)cc4F)c4c(N)ncnc43)C2)C1` [Example 6] yielded an IC50 of 0.85 nM.

Turning to `CC#CC(=O)N1CC2(CC(n3nc(-c4ccc(Oc5ccccc5)nc4)c4c(N)ncnc43)C2)C1` [Example 7], the half-inhibitory concentration (IC50) amounted to 1.1 nM. The value for `C=CC(=O)N1CC2(CC(n3nc(-c4ccc(Oc5ccccc5)nc4)c4c(N)ncnc43)C2)C1` [Example 8] was 2.4 nM; that for `C/C=C/C(=O)N1CC2(CC(n3nc(-c4ccc(Oc5ccccc5)nc4)c4c(N)ncnc43)C2)C1` [Example 9] was 83 nM; that for `CC#CC(=O)N1CC[C@]2(C1)C[C@@H](n1nc(-c3ccc(Oc4ccccc4)cn3)c3c(N)ncnc31)C2` [Example 13] was 0.74 nM.

The molecule `CN(C)C/C=C/C(=O)N1CC2(CC(n3nc(-c4ccc(Oc5ccccc5)cn4)c4c(N)ncnc43)C2)C1` [Example 15] showed an IC50 of 32 nM.

Molecule `CN(C)C/C=C/C(=O)N1CC[C@]2(C1)C[C@@H](n1nc(-c3ccc(Oc4ccccc4)cn3)c3c(N)ncnc31)C2` [Example 16] came in with an IC50 of 8.1 nM.

Turning to `CN(C)C/C=C/C(=O)N1CC[C@]2(C1)C[C@H](n1nc(-c3ccc(Oc4ccccc4)cn3)c3c(N)ncnc31)C2` [Example 17], the IC50 stood at 7.1 nM.

Broadly, the IC50 is the point on the concentration scale where inhibition reaches its midpoint.
